Results from patent US20150072968A1, “Treating Infections with Ceftolozane/Tazobactam in Subjects Having Impaired Renal Function” (Calixa Therapeutics, Inc., priority 2013, published 2015).
Like-named read-outs stand apart in the source and are kept apart here.

Key:
P. aeruginosa = details: neutropenic murine-thigh infection model; cited from earlier work
[1] = Pharmacokinetics of ceftolozane/tazobactam in healthy volunteers; type: in vivo, human
[2] = Phase 1 single dose PK of 750 mg ceftolozane/tazobactam in severe renal impairment and ESRD on hemodialysis (Example 8); type: in vivo, human; details: for AUC(0-t) / Cmax / half-life / Tmax / AUC(0-inf) / clearance / Vd: both sexes, human, plasma; for Cmax: read-out: Cmax, Mean (CV %); for half-life: read-out: t1/2, Mean (CV %) (converted); for Tmax: read-out: tmax, Median (minimum, maximum); for AUC(0-inf): read-out: AUC∞, Mean (CV %); for clearance: read-out: CL, Mean (CV %) (converted); for Vd: read-out: Vss, Mean (CV %)
Experimental: This was a Phase 1, multicenter, prospective, open-label study of 750 mg ceftolozane/tazobactam (as CXA-201) administered IV in male and female adult subjects with severe renal impairment (estimated CLCR<30 mL/min) and subjects with end-stage renal disease (ESRD) on hemodialysis (HD). The primary objective of the study was to determine the PK profile of ceftolozane/tazobactam in subjects with severe renal impairment and subjects with ESRD on HD and to determine the effect of HD on the clearance of ceftolozane/tazobactam.
Subjects with severe renal impairment received a single IV 1-hour infusion of 750 mg ceftolozane/tazobactam on Day 1. […] Subjects in this cohort received an IV dose of 750 mg ceftolozane/tazobactam as a 1 hour infusion immediately after their first HD session on Day 1 (postdialysis, approximately 72 hours prior to the next HD session) and a second dose of ceftolozane/tazobactam approximately 2 hours before their second HD session on Day 4 of the study. Infusion of ceftolozane/tazobactam was completed approximately 1 hour before the start of HD.
Subjects in both cohorts had urine (if not anuric) and plasma samples collected for determination of levels of ceftolozane, tazobactam and the M1 metabolite of tazobactam; subjects in the ESRD on HD cohort also had dialysate fluid samples collected for PK assessment. Plasma, urine, and dialysate levels of ceftolozane, tazobactam, and its metabolite M1 collected over a prespecified interval were determined by LC/MS/MS assay.
All subjects underwent hemodialysis for 3 to 4 hours using a high-flux membrane (either 1.4, 1.8, or 1.9 m^2) on Days 1, 4, and 6 as scheduled. Average blood flow rate was 264 to 600 mL/min and average dialysis flow rate was either 600 or 800 mL/min for all subjects with ESRD.

[3] = cited from earlier work
clinical = details: human, in vivo
Description: CXA-201 plasma concentrations from 6 subjects with ESRD following a single dose without HD and a second dose with HD were used to develop a pPK model (Phoenix NLME, Pharsight).

[4] = Population pharmacokinetic analysis of 10 clinical studies (Example 7); type: in vivo, human
Description: Base model development. […] Intrinsic covariates analyzed included body weight, age, gender, ethnicity, and baseline calculated CrCL). The CrCL was estimated using the Cockcroft-Gault formula: […] […] Final population PK model: evaluation and performance. […] Smaller shrinkage ≦0.2 indicates good individual estimates.

[5] = cited from earlier work; remark: listed apart in the source
[6] = Phase I PK studies in subjects with varying degrees of renal function (Example 11); type: in vivo, human
Description: Male and female subjects, aged 18 to 79 years, with varying degrees of renal function were enrolled in two, prospective, open-label, phase I studies of intravenous ceftolozane/tazobactam. A total of 36 subjects were enrolled into cohorts based on degree of renal function: normal (n=11), mild impairment (n=6), moderate impairment (n=7), severe impairment (n=6), and ESRD on HD (n=6). To ensure subjects with ESRD were receiving effective HD, a target adequacy of HD calculated from the pre- and post-blood urea nitrogen ratios (Kt/V) of at least 1.2 for a minimum of 3 months prior to enrollment was required. Renal impairment groups were classified according to the 2010 U.S.

[7] = intravenous, 750 mg, ESRD on HD, second infusion Day 4, start of infusion to end of dialysis
[8] = iv, 750 mg, ESRD on HD, Day 1 IV infusion of 750 mg (non-hemodialysis phase)
[9] = iv, 750 mg, ESRD on HD, second IV infusion of 750 mg on Day 4 (during HD)
[10] = iv, 750 mg, severe renal impairment, single IV 1-hour infusion of 750 mg ceftolozane/tazobactam
[11] = moderate renal impairment, single 1,000 mg/500 mg dose
[12] = severe renal impairment, single 500 mg/250 mg dose

- clearance ([1]; human, plasma, intravenous, after a single dose of CXA-201, read-out: plasma CL): 68.3 to 112 mL/min
- CL renal ([1]; human, urine and plasma, intravenous, after a single dose of CXA-201, read-out: renal clearance): 56.8 to 112 mL/min
- excreted in the urine as unchanged parent drug ([1]; single 1.5 g intravenous dose of CXA-201, healthy male adults): greater than 95%
- AUC(0-t) ([2]; intravenous, 750 mg, ESRD on HD, second infusion Day 4, approximately 6 hours from start of infusion to end of dialysis, read-out: AUClast, Mean (CV %)): 87.5 µg·h/mL
- Cmax [2, 7]: 40900 ng/mL
- half-life [2, 7]: 1.25 h
- Tmax [2, 7]: 1 h
- AUC(0-t) ([2]; intravenous, 750 mg, subjects with ESRD, read-out: Exposure (AUC48h) After HD (Day 1), Median (Range)): 903 µg·h/mL
- AUC(0-t) ([2]; intravenous, 750 mg, subjects with ESRD, read-out: Exposure (AUC48h) During HD (Day 3), Median (Range)): 298 µg·h/mL
- AUC(0-inf) [2, 8]: 1680 µg·h/mL
- clearance [2, 8]: 6.67 mL/min
- Cmax [2, 8]: 44500 ng/mL
- Vd [2, 8]: 19.2 L
- half-life [2, 8]: 39.8 h
- AUC(0-t) ([2]; iv, 750 mg, ESRD on HD, Day 1 IV infusion of 750 mg (non-hemodialysis phase), through 48 hours, read-out: AUClast, Mean (CV %)): 910 µg·h/mL
- Cmax [2, 9]: 40900 ng/mL
- half-life [2, 9]: 43.5 h
- AUC(0-t) ([2]; iv, 750 mg, ESRD on HD, second IV infusion of 750 mg on Day 4 (during HD), through 44 hours, read-out: AUClast, Mean (CV %)): 304 µg·h/mL
- AUC(0-t) ([2]; iv, 750 mg, severe renal impairment, single IV 1-hour infusion of 750 mg ceftolozane/tazobactam, through 48 hours, read-out: AUClast, Mean (CV %)): 511 µg·h/mL
- Cmax [2, 10]: 49900 ng/mL
- AUC(0-inf) [2, 10]: 537 µg·h/mL
- clearance [2, 10]: 16.7 mL/min
- Vd [2, 10]: 13.8 L
- half-life [2, 10]: 11.1 h
- Tmax ([2]; ESRD on HD, second IV infusion of 750 mg on Day 4 (during HD)): 1 h
- AUC48h Ratio (Day 3:1), Median (Range) ([2]; subjects with ESRD, during HD vs after HD): 0.34 (0.26 − 0.48)
- Percent Removed, Median (Range) ([2]; subjects with ESRD, hemodialysis): 66 (52 − 74) Percent
- Vd (clinical): 6 L
- clearance (clinical): 5.67 mL/min
- increase of CL by HD (clinical): 60 fold
- increase of Vc by HD (clinical): 4.7 fold
- Vc ([4]; cIAI): 18.2 L
- Vc ([4]; cUTI, at 74 kg body weight): 13.8 L
- between-subject variability (BSV) of CL ([4]; final population PK model): 33.0%
- clearance ([4]; human, plasma, intravenous, patients with cIAI, at CrCL=109 mL/min, read-out: CL (converted)): 104 mL/min
- CL higher than that in healthy subjects ([4]; patients with cUTI and cIAI): about 20%
- CL ([4]; patients with cUTI, at CrCL=109 mL/min): 6.18 L/h
- extraction ratio ([6]; 1 h after the start of HD): 42%
- extraction ratio ([6]; 2 h after the start of HD): 48%
- median Cmax in plasma higher compared with normal renal function, dose normalized ([6]; ESRD during non-HD): 1.2 fold
- average extraction ratio during HD ([6]; ESRD on HD): 46%
- median RDHD (percent reduction in plasma concentration during HD) ([6]; ESRD on HD): 92%
- reduction in overall exposure based on the AUC0-∞ on and off HD ([6]; ESRD on HD): approximately 66%
- plasma concentration rebound peak following HD, of the original Cmax ([6]; ESRD, period following HD): approximately 17%
- extraction ratio ([6]; at end of HD): 47%
- clearance ([6]; both sexes, human, dialysate and plasma, intravenous, ESRD on HD, read-out: median dialysis clearance (CLD) (converted)): 95.8 mL/min
- half-life ([6]; both sexes, human, plasma, intravenous, ESRD on HD, read-out: t1/2 during the HD period (converted)): 1.13 h
- increase of median AUC0-∞ compared with normal renal function [6, 11]: 2.5 fold
- increase of median Cmax compared with normal renal function [6, 11]: 1.2 fold
- increase of median AUC0-∞ compared with dose-normalized exposure in normal renal function [6, 12]: 4.4 fold
- increase of median Cmax compared with dose-normalized exposure in normal renal function [6, 12]: 1.3 fold
Structure (SMILES): Cn1c(N)c(NC(=O)NCCN)c[n+]1CC1=C(C(=O)[O-])N2C(=O)[C@@H](NC(=O)/C(=N\OC(C)(C)C(=O)O)c3nsc(N)n3)[C@H]2SC1 [Ceftolozane, (6R,7R)-3-[(5-amino-4-{[(2-aminoethyl)carbamoyl]amino}-1-methyl-1H-pyrazol-2-ium-2-yl)methyl]-7-({(2Z)-2-(5-amino-1,2,4-thiadiazol-3-yl)-2-[(1-carboxy-1-methylethoxy)imino]acetyl}amino)-8-oxo-5-thia-1-azabicyclo[4.2.0]oct-2-ene-2-carboxylate]
- free-drug (f) % T>MIC associated with a 1-log10 CFU reduction from baseline (P. aeruginosa): 32.2
- free-drug (f) % T>MIC associated with net bacterial stasis (P. aeruginosa): 24.8
- terminal elimination half-life (t½β) ([3]; healthy volunteers): approximately 2.5 hours
- Terminal elimination half-lives (t1/2) ([3]; patients with normal renal function): approximately 2.5 h
- protein binding [5]: approximately 20%
